One data set deals with T1, UGT76B1 (Arabidopsis thaliana, UniProt Q9C768).
T1 construct: The UGT76B1 open reading frame was amplified with the same primers as used for the construction of the overexpression lines; made in house
T1 sequence (Q9C768 1-447): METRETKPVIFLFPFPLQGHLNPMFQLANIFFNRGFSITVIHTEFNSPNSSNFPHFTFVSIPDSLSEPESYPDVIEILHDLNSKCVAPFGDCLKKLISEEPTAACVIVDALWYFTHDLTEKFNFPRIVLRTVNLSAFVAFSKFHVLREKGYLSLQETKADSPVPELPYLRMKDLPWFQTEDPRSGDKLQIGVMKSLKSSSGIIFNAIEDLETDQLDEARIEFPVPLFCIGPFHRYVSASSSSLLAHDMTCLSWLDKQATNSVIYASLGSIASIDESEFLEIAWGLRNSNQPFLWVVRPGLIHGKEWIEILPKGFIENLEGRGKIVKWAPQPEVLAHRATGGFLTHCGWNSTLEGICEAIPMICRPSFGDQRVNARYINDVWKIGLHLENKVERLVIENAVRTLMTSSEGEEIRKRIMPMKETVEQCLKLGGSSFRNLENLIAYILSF
Kind of data set: In vitro glucosyltransferase activity assay of recombinant UGT76B1. The data set is classed as biochemical. Particulars: 0.5 mM aglycone, 5 mM UDP-glucose, 1 hour at 30° C., analyzed by mass spectrometry. From the text:
A glutathione-S-transferase (GST)-UGT761 expression plasmid was constructed using pDEST15 (Invitrogen, Germany). The UGT76B1 open reading frame was amplified with the same primers as used for the construction of the overexpression lines. The recombinant protein was affinity-purified using a glutathione-coupled sepharose beads according to the manufacturer's instructions (GE Healthcare, Germany), concentrated by membrane filtration (Amicon Ultra-4; Millipore, Germany) and supplemented with 20% glycerol for storage at −20° C. (Messner et al., 2003). To analyze the UGT enzyme activity assay mixtures contained 0.1 M Tris-HCl (pH 7.5), 5 mM UDP-glucose, 0.5 mM aglycone and about 1 μg fusion protein in a final volume of 50 μL. After incubation for 1 hour at 30° C. the reaction was stopped by addition of 200 μL methanol and cleared by centrifugation. Reactions were diluted 1:50 in 70% methanol (except for valic acid, which was used without dilution) and analyzed on a API4000 mass spectrometer using direct injection into the electrospray source at a flow rate of […]. 150 Scans were accumulated for each measurement in dual ion monitoring mode, which was adjusted to monitor ions at nominal m/z ratios of the corresponding expected substrate and product peaks with a mass range of ±5 Da.

Data set [1] deals with defence marker genes PR1, PDF1.2 and VSP2. Nature of the data set: Defense marker gene expression in Col-0 plants after spraying with α-hydroxy-acid (RTqPCR). Particulars: for expression of defense marker genes (PR1 and PDF1.2): 4-week-old Col-0 plants, 24 h after treatment, 1 mM in water, preliminary, two biological replicates. The data set is classed as in vivo, Arabidopsis. The method, then:
Rosette leaves of the indicated age were collected. Total RNA was isolated using the RNeasy Plant Mini Kit (Qiagen, Germany). RNA integrity and amount was analyzed by gel electrophoresis and by spectrophotometry. One microgram of total RNA was reverse transcribed using a SuperScript II reverse transcription-PCR kit (Invitrogen; Germany) according to the manufacturer's instructions. Gene-specific primer pairs were designed using the Primer Express 3.0 software. […] Real time quantification was performed using a 7500 real time PCR system (Applied Biosystems, Germany). Individual PCR reaction mixtures contained 4 μL of diluted cDNA, 10 μL of Sybr Green Mastermix (Thermo Scientific, Germany) and […] of each primer in a final volume of 20 μL. In all experiments, three biological replicates of each sample and two technical (PCR) replicates were performed. The amount of target gene was normalized over the abundance of the constitutive UBQ5 (At3g62250) and S16 (At5g18380, At2g09990) genes. The stability of the reference genes was tested and normalization was performed using GeNorm (Vandesompele et al., 2002). For RTqPCR of infected material, plants were infected as described below. Three biological replicates were analyzed; each consisted of six individually infected leaves. Plant material was harvested before infection and mock treatments (time point 0) and at the indicated time points after treatment. Each experiment was repeated with similar results.
For isoleucic acid treatment, 4-week-old plants were sprayed with 0.5 or 1 mM isoleucic acid (diluted in water) or only water for mock treatments. Plants were covered with a plexiglass lid until the surface of the leaves became dry. The fifth to eighth true leaves of each plant were harvested 24 hours after treatment. Four leaves from three independent plants were pooled for each replicate and analyzed by real-time PCR.
For orientation: In qPCR the cycle at which signal appears reflects the starting amount.

For data set [2], the system named is P. syringae pv. tomato DC3000 (avrRpm1) (Ps-avir). Kind of data set: Bacterial growth in Arabidopsis leaves of wild-type plants sprayed with ILA before infection. The format is in vivo, Pseudomonas syringae. On the procedure: FIG. 14: Direct effect of exogenously applied ILA on pathogen defence. Bacterial growth in Arabidopsis leaves of wild-type plants sprayed with water (blank) or 1 mM ILA (dotted) 24 h or 72 h before infection. Plants were inoculated with 5*10^5 cfu ml^−1 of Ps-avir and bacteria (cfu cm^−2) were quantified 0 and 3 days after inoculation. The graphs represent the means and standard deviations of three replicates.
Bacterial strains used in this study include Pseudomonas syringae pv. tomato DC3000 (Ps), P. syringae pv. tomato DC3000 (avrRpm1) (Ps-avir). Bacteria were grown overnight at 28° C. in King's B medium with appropriate antibiotics and diluted to 5*10^5 cfu mL^−1 with 10 mM MgCl2 for plant inoculation. Whole leaves of 5- to 6-week-old plants were infiltrated using a 1-mL syringe without a needle. Control plants were infiltrated with 10 mM MgCl2. Leaf discs from control treated and infected plants were harvested from inoculated leaves at 0, 1 and 3 d after infiltration. Bacterial growth was assessed as described previously (Katagiri et al., 2002). For each time point, three samples were made by pooling six leaf discs from three different treated plants.

In data set [3] the test system is pathogen responsive genes PR1 and PR10. Nature of the data set: Induction of defence genes in barley leaves (semiquantitative PCR). The data set is classed as in vivo, Hordeum vulgare. The conditions noted are these: 2-week-old plants sprayed with 1 mM ILA, 48 h after treatment. The method, then:
Total RNA was isolated using the RNeasy Plant Mini Kit (Qiagen, Germany). RNA integrity and amount was analyzed by gel electrophoresis and by spectrophotometry. One microgram of total RNA was reverse transcribed using a QuantiTect reverse transcription-PCR kit (Qiagen; Germany) according to the manufacturer's instructions. The following gene-specific primer pairs were kindly provided by Corina Vlot: EF1A_Hv_f (5′-[…]-3′) and EF1A_Hv_r (5′-[…]-3′) for the barley reference gene EF1A; PR1_Hv_f (5′-[…]-3′) and PR1_Hv_r (5′-[…]-3′) for barley PR1; Hv, PR10_Hv_f (5′-[…]-3′) and PR10_Hv_r (5′-[…]-3′) for barley PR10. PCR fragments were amplified using the indicated number of PCR cycles (FIG. 17) and separated on a 2% agarose gel containing ethidium bromide.
For ILA treatment in barley, 2-week-old plants were sprayed with either 1 mM ILA or 0.25 mg/ml BTH (benzothiadiazole/BION™), dissolved in water with 0.01% tween. For mock treatment, plants were sprayed only with water containing 0.01% tween. Leaves were harvested 48 hours after treatment and analyzed by semiquantitative PCR.

[4] abbreviates: leaves of four-week-old Col-0 plants, 24 h after spraying isoleucic acid solution.

Four compounds from US20150038333A1, “PLANT PROTECTIVE COMPOSITION CONTAINING ALPHA-HYDROXY ACIDS” (HELMHOLTZ ZENTRUM MÜNCHEN DEUTSCHES FORSCHUNGSZENT -RUN FÜR …, priority 2011, published 2015) can be followed below.

In the case of `CCC(O)(CC)C(=O)O` [2-ethyl-2-hydroxybutyric acid], the “glucosylation by recombinant UGT76B1” value on UGT76B1 is given as “no activity”.

As for `CC(C)[C@H](O)C(=O)O` [valic acid, (S)-(+)-2-hydroxy-3-methylbutyric acid], the “expression of defense marker genes (PR1 and PDF1.2)” value in data set [1] is listed as “can also induce”. For the same compound, the “glucosylation by recombinant UGT76B1” value on UGT76B1 is on record as “able to glucosylate”.

In the case of `CCC(C)C(O)C(=O)O` (stereo not drawn) [isoleucic acid, 2-hydroxy-3-methylpentanoic acid], the “persistence of increased resistance after ILA spraying” value in data set [2] (1 mM ILA sprayed 24 h or 72 h before Ps-avir infection) lay within 1 to 3 days. For the same compound, the “bacterial growth compared with mock treatment” value in data set [2] (1 mM ILA sprayed 24 h or 72 h before infection with 5*10^5 cfu ml^-1 Ps-avir, bacteria quantified 3 days after inoculation) is given as “about four- to fivefold less bacterial growth”. In data set [1] (setting [4]), the “PDF1.2 expression relative to mock (water) treatment” value is listed as “tendency for induction” and the “VSP2 expression relative to mock (water) treatment” value is on record as “only marginally suppressed”. The “PR1 expression relative to mock (water) treatment” value in data set [1] (leaves of four-week-old Col-0 plants, 24 h after spraying isoleucic acid solution (0.5 or 1 mM)) was “more than tenfold induced”. Further, the “glucosylation by recombinant UGT76B1” value at UGT76B1 is “glucosylated”. In addition, in data set [3], the “PR1 transcript level in barley” value was “induces” and the “PR10 transcript level in barley” value was “induces”.

In the case of `CCCCCCC(O)C(=O)O` (stereo not drawn) [2-hydroxy-octanoic acid], the “expression of defense marker genes (PR1 and PDF1.2)” value in data set [1] is reported as “can also induce”.
